Reference: paper PMC5556071, “ATR inhibition facilitates targeting of leukemia dependence on convergent nucleotide biosynthetic pathways” (Nature Communications, 2017)
Several values for one entry are separate records, joined by “and”; a condition that tells them apart may be missing. Identical values can stand only once.

Tested on: CEM cells
Assay: Non-targeted LC-MS metabolite profiling: percent [13C6]glucose labeling and relative metabolite levels
Type: cell-based, human
Details: CEM cells, 12 h following release from G1 arrest, replicates #1-#6
Source text: To further investigate the functions of dCK and ATR at the G1/S transition in CEM cells, a non-targeted liquid chromatography mass spectrometry (LC-MS) assay was used to determine the utilization of labeled [^13C6]glucose and [^13C9,^15N3]deoxycytidine, the main substrates for de novo and salvage nucleotide biosynthesis, respectively. Of the 166 metabolites identified in CEM cells treated with VE-822 and/or dCKi, 105 metabolites found in all four treatment groups contained glucose-derived ^13C atoms. […] These metabolites included intermediates such as rUTP, rCTP and rCDP in the de novo dCTP biosynthesis (Fig. 1d). […] However, several deoxyribonucleotides, including dCTP, were below the limit of detection of the non-targeted LC-MS approach, raising the concern that the sensitivity of this assay is not sufficient to measure the contribution of the salvage pathway or the ratio of de novo and salvage biosynthesis to these pools. To address this problem, a newly developed targeted MS assay was developed (Fig. 1e and Supplementary Fig. 3). In this assay, samples containing either extracted dNTPs or hydrolyzed DNA from labeled cells are separated by LC for detection by a triple quadrupole mass spectrometer using multiple reaction monitoring (LC-MS/MS-MRM). The first (Q1) and third (Q3) quadrupoles function as mass filters, while the second (Q2) quadrupole serves as a collision chamber (Fig. 1e). For instance, to profile the biosynthetic composition of deoxycytidine (dC) derived from hydrolyzed DNA or dCTP, an intact, protonated dC ion is selected in Q1, followed by fragmentation of the glycosidic bond, which releases protonated cytosine in Q2, that is filtered in Q3 and detected to generate an ion chromatogram. The peak areas for the ion chromatograms of salvage [^13C9,^15N3]dC (red trace), de novo [^13C5]dC (black trace, from [^13C6]glucose) and unlabeled dC (gray trace) (Fig. 1e) are used to determine the relative contributions of the de novo and salvage routes both to dCTP pools and to DNA-incorporated dCTP.
Cells were transferred into RPMI-1640 without glucose and supplemented with 10% dialyzed FBS (Gibco) containing the following labeled substrates: precursors for de novo [U-^13C6]glucose (Sigma-Aldrich, 389374) at 11 mM; precursors for purine salvage [U-^13C10,^15N5]dA (Cambridge Isotopes, CIL 3896), [^15N5]dA (Cambridge Isotopes, NLM-3895) and [^15N5]dG (Cambridge Isotopes, NLM-3899) at 5 µM or as indicated; and precursors for pyrimidine salvage: [U-^13C9,^15N3]dC (Silantes, 124603602) and [U-^13C10,^15N2]dT (Cambridge Isotopes, CNLM-3902) at 5 µM and [^15N2]orotate (Cambridge Isotopes, NLM-1048) at indicated concentrations. The cells were incubated for 12 h or as indicated before sample collection and processing. […]
Non-targeted LC-MS metabolic assays. 1 x 10^6 cells were washed with ice-cold 150 mM ammonium acetate twice before adding 1 mL of ice-cold 80% methanol with 10 nM norvaline as an internal standard. After vigorous vortexing, samples were centrifuged at maximum speed, the aqueous layer was transferred to a glass vial and the metabolites were dried under vacuum. Metabolites were resuspended in 50 μL 70% acetonitrile (ACN) and 5 μL of this solution used for the mass spectrometer-based analysis. The analysis was performed on a Q Exactive (Thermo Scientific) in polarity-switching mode with positive voltage 4.0 kV and negative voltage 4.0 kV. The mass spectrometer was coupled to an UltiMate 3000RSLC (Thermo Scientific) UHPLC system. Mobile phase A was 5 mM ammonium acetate (NH4AcO), pH 9.9, B was acetonitrile and the separation achieved on a Luna […] NH2 100 A column (150 × 2.0 mm, Phenomenex). The flow was 200 μL/min, and the gradient ran from 15% A to 95% A in 18 min, followed by an isocratic step for 9 min and re-equilibration for 7 min. Metabolites were detected and quantified as area under the curve based on retention time and accurate mass (≤ 3 p.p.m.) using the TraceFinder 3.1 (Thermo Scientific). Relative amounts of […]

[1] = metabolite 2-HG (C02630), listed as D
[2] = metabolite 2-Oxoadipate (C00322), listed as D
[3] = metabolite 3PG (C00197), listed as D
[4] = metabolite 4-OH-PheLac (C03672), listed as D
[5] = metabolite 5-Oxoproline (C01879), listed as D
[6] = metabolite 5M-adenosine (C00170), listed as D
[7] = metabolite A (C00212), listed as D
[8] = metabolite ADP (C00008), listed as D
[9] = metabolite AMP (C00020), listed as D
[10] = metabolite ATP (C00002), listed as D
[11] = metabolite Ac-carnitine (C02571), listed as D
[12] = metabolite Ac-choline (C01996), listed as D
[13] = metabolite Aconitate (C00417), listed as D
[14] = metabolite Adenine (C00034), listed as D
[15] = metabolite Ala (C00041), listed as D
[16] = metabolite Allantoin (C02350), listed as D
[17] = metabolite Arg (C00062), listed as D

Compound: COc1ccc(-c2nc([C@@H](C)Sc3nc(N)cc(N)n3)c(C)s2)cc1OCCNS(C)(=O)=O [dCKi]
- Relative level, S7P (listed as D): 0.547 and 0.8 and 1.8 and 0.0379 and 0.143 and 0.5
- Relative level, SAM (listed as D): 1.1 and 1.4 (2×) and 0.8 and 0.6 and 0.7
- Relative level, Sarc (C00213) (listed as D): 1.2 and 1.0 (2×) and 1.6 and 0.662 and 0.641
- Relative level, Ser (C00065) (listed as D): 1.1 and 1.2 and 1.3 and 0.846 and 0.7 and 0.9
- Relative level, Shikimate (C00493) (listed as D): 1.3 and 0.7 and 1.0 and 0.649 and 0.9 (2×)
- Relative level, Succ (C00042) (listed as D): 1.5 and 0.6 (2×) and 1.3 and 0.374 and 0.633
- Relative level, T (C00214) (listed as D): 1.2 and 1.1 and 1.0 and 1.4 and 151.2 and 4.3
- Relative level, Thr (C00188) (listed as D): 1.1 and 1.2 and 1.3 and 0.8 and 0.7 and 0.738
- Relative level, Thymine (C00178) (listed as D): 1.0 and 1.2 and 1.3 and 0.9 and 0.95 and 1.1
- Relative level, Trigonelline (C01004) (listed as D): 1.2 (2×) and 0.847 and 1.1 and 1.5 and 1.0
- Relative level, Trp (C00078) (listed as D): 1.1 and 1.4 and 1.7 and 0.9 (2×) and 1.0
- Relative level, Tyr (C00082) (listed as D): 1.2 and 1.4 and 1.6 and 0.9 and 0.7 and 0.8
- Relative level, Tyramine (C00483) (listed as D): 1.2 (2×) and 1.1 and 0.8 (2×) and 0.7
- Relative level, UDP (C00015) (listed as D): 0.742 and 1.3 and 2.0 and 0.235 and 0.464 and 0.9
- Relative level, UDP-Glc (C00029) (listed as D): 0.8 and 1.2 and 1.1 and 0.3 and 0.6 (2×)
- Relative level, UDP-GlcNAc (C00043) (listed as D): 1.0 and 1.4 and 1.2 and 0.5 and 0.744 and 0.8
- Relative level, UMP (C00105) (listed as D): 1.3 and 1.6 and 1.9 and 0.4 and 0.552 and 0.7
- Relative level, UTP (C00075) (listed as D): 0.4 and 0.9 and 1.4 and 0.092 and 0.334 and 0.547
- Relative level, Uracil (C00106) (listed as D): 1.2 (2×) and 0.9 and 1.0 and 1.3 and 1.9
- Relative level, Uric Acid (C00366) (listed as D): 1.5 and 0.155 and 0.646 and 0.6 and 0.362 and 0.421
- Relative level, Urocanate (C00785) (listed as D): 2.0 and 0.4 and 0.448 and 1.2 (2×) and 1.0
- Relative level, Val (C00183) (listed as D): 1.1 and 1.2 (2×) and 0.9 (2×) and 1.0
- Relative level, Vit-C (C00072) (listed as D): 0.9 and 0.181 and 1.3 and 0.0595 and 0.3 and 0.557
- Relative level, Xanthine (C00385) (listed as D): 1.7 and 0.5 and 0.6 and 1.1 and 1.5 and 1.2
- Glucose labeling, 2-HG [1]: 6.77% and 13.59% and 15.44% and 1.27% and 1.71% and 4.69%
- Relative level, 2-HG [1]: 1.0 and 0.9 and 1.5 and 0.5 (2×) and 0.7
- Glucose labeling, 2-HIC (metabolite 2-HIC (C03264)): 0.00%
- Relative level, 2-HIC (metabolite 2-HIC (C03264), listed as D): 1.2 and 1.1 and 1.4 and 0.9 and 1.3 and 0.8
- Glucose labeling, 2-KIC (metabolite 2-KIC (C00233)): 0.00%
- Relative level, 2-KIC (metabolite 2-KIC (C00233), listed as D): 1.2 and 0.9 (3×) and 1.1 and 0.8
- Glucose labeling, 2-Oxoadipate [2]: 0.00% (5×) and 1.11e-14%
- Relative level, 2-Oxoadipate [2]: 0.7 (2×) and 0.646 and 0.742 and 1.0 and 0.9
- Glucose labeling, 2-Oxosuccinamate (metabolite 2-Oxosuccinamate (C02362)): 0.0737%
- Relative level, 2-Oxosuccinamate (metabolite 2-Oxosuccinamate (C02362), listed as D): 1.2 and 0.465 and 0.6 and 0.528 and 0.8 and 0.469
- Glucose labeling, 3PG [3]: 92.31% and 91.58% and 98.25% and 86.75% and 100.00% and 88.16%
- Relative level, 3PG [3]: 0.4 and 0.7 and 0.846 and 0.082 and 0.125 and 0.0782
- Glucose labeling, 4-OH-PheLac [4]: 0.00% (5×) and -2.22e-14%
- Relative level, 4-OH-PheLac [4]: 1.1 and 1.4 and 1.5 and 0.641 and 0.6 and 0.8
- Glucose labeling, 5-Oxoproline [5]: 0.92% and 1.40% and 1.07% and 1.03% and 1.24% and 1.22%
- Relative level, 5-Oxoproline [5]: 1.1 and 1.2 and 1.5 and 0.853 and 0.9 and 1.0
- Glucose labeling, 5M-adenosine [6]: 0.00% (3×) and -2.22e-14% (3×)
- Relative level, 5M-adenosine [6]: 1.2 and 1.7 and 1.8 and 0.756 and 0.7 and 1.0
- Glucose labeling, A [7]: 0.07% and 0.09% and 0.36% and 0.41% (2×) and 0.34%
- Relative level, A [7]: 1.5 and 0.9 (2×) and 1.1 and 0.856 and 0.8
- Glucose labeling, ADP [8]: 70.99% and 74.74% and 75.09% and 55.71% and 66.84% and 71.23%
- Relative level, ADP [8]: 0.7 and 1.2 and 1.9 and 0.226 and 0.4 and 0.8
- Glucose labeling, AMP [9]: 68.04% and 70.86% and 73.23% and 43.50% and 56.58% and 70.44%
- Relative level, AMP [9]: 1.2 (2×) and 1.8 and 0.25 and 0.471 and 0.9
- Glucose labeling, ATP [10]: 75.87% and 76.55% and 77.60% and 67.61% and 74.40% and 75.12%
- Relative level, ATP [10]: 0.38 and 0.9 and 1.3 and 0.117 and 0.3 and 0.6
- Glucose labeling, Ac-carnitine [11]: 31.00% and 33.96% and 35.62% and 27.44% and 29.81% and 28.83%
- Relative level, Ac-carnitine [11]: 1.1 and 1.3 and 1.2 and 0.7 and 0.756 and 0.8
- Glucose labeling, Ac-choline [12]: 0.00451% and 0.00494% and 0.00571% and 0.0058% and 0.0047% and 0.00638%
- Relative level, Ac-choline [12]: 0.9 and 1.1 and 1.0 (4×)
- Glucose labeling, Aconitate [13]: 32.66% and 37.44% and 42.11% and 17.39% and 31.02% and 28.93%
- Relative level, Aconitate [13]: 0.7 and 1.2 and 1.6 and 0.2 and 0.5 and 0.639
- Glucose labeling, Adenine [14]: 0.0339% and 2.19% and 0.79% and 0.14% and 0.00469% and 0.21%
- Relative level, Adenine [14]: 1.9 and 0.7 and 1.3 (2×) and 3.1 and 1.0
- Glucose labeling, Ala [15]: 47.12% and 64.98% and 65.33% and 49.43% and 49.22% and 48.91%
- Relative level, Ala [15]: 1.5 and 1.2 and 1.3 and 0.8 (3×)
- Glucose labeling, Allantoin [16]: 0.00% (5×) and 1.11e-14%
- Relative level, Allantoin [16]: 1.1 and 1.9 and 2.0 and 0.8 and 1.3 and 1.5
- Glucose labeling, Arg [17]: 0.0044% and 0.00434% and 0.00388% and 0.00418% and 0.00453% and 0.00424%
- Relative level, Arg [17]: 1.0 and 1.3 and 1.5 and 0.749 and 0.7 (2×)
- Glucose labeling, Arg-Succ (metabolite Arg-Succ (C03406), listed as D): 7.24% and 12.66% and 11.40% and 7.14% and 3.06% and 7.90%
